Results from EP2970215B1, “PYRROLIDINE DERIVATIVES, PHARMACEUTICAL COMPOSITIONS CONTAINING THEM, AND THEIR USE IN THERAPY” (AbbVie Deutschland GmbH & Co. KG, priority 2013, dated 2014).

These molecules were tested against T1, human GlyT1c transporter (Homo sapiens, UniProt P48067) (assay: Radioligand binding assay using recombinant CHO cell membranes expressing human GlyT1). Details: radioligand binding to human GlyT1c transporter-expressing membranes.
T1 construct: expressed in transfected cells; host or cells: CHO cells (recombinant; line hGlyT1c_5_CHO is named for the uptake assay)
T1 sequence (P48067 1-706): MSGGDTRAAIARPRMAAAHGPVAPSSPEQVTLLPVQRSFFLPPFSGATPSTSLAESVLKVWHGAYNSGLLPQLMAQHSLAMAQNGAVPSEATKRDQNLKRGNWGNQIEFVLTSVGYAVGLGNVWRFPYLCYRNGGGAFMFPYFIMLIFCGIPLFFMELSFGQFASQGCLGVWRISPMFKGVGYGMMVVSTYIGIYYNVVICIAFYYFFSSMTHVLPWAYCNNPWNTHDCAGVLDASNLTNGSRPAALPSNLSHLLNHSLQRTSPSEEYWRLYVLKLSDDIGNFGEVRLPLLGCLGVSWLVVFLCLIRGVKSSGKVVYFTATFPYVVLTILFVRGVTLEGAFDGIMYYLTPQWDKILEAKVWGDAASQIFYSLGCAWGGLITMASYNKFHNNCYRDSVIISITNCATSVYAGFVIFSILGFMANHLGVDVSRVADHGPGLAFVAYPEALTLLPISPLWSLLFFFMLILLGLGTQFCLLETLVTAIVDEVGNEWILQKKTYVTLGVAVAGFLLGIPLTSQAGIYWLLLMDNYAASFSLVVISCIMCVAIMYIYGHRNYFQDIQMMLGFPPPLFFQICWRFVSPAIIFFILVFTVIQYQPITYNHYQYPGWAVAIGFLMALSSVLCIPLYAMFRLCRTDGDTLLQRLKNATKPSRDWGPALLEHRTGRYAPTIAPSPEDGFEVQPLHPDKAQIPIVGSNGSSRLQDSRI
Source text: 2. Radioligand binding assays using recombinant CHO cell membranes expressing human GlyT1: […]
`CC(C)CCCCCNC(=O)[C@@H]1CN(S(=O)(=O)c2cn(C)cn2)C[C@H]1c1ccc(F)cc1` (relative stereo) [Example 643, Trans-4-(4-fluorophenyl)-N-(6-methylheptyl)-1-[(1-methyl-1H-imidazol-4-yl)sulfonyl]pyrrolidine-3-carboxamide] was tested, and the Ki was ≤ 10 µM.
`Cn1cnc(S(=O)(=O)N2C[C@H](Nc3ccc(Cl)c(OC(F)(F)F)c3)[C@@H](c3ccc(F)cc3)C2)c1` [Example 585, (3R,4S)-N-[4-chloro-3-(trifluoromethoxy)phenyl]-4-(4-fluorophenyl)-1-[(1-methyl-1H-imidazol-4-yl)sulfonyl]pyrrolidin-3-amine] was tested, and the Ki was ≤ 0.1 µM.
`Cn1cnc(S(=O)(=O)N2C[C@H](NCc3cncs3)[C@@H](c3ccccc3)C2)c1` [Example 457, (3R,4S)-1-[(1-methyl-1H-imidazol-4-yl)sulfonyl]-4-phenyl-N-(1,3-thiazol-5-ylmethyl)pyrrolidin-3-amine] was tested, and the Ki was ≤ 10 µM.
With `O=S(=O)(c1ccc(C(F)(F)F)nc1)N1CC(Nc2ccc(F)c(F)c2)C(c2ccccc2)C1` (stereo not drawn) [Example 500, N-(3,4-difluorophenyl)-4-phenyl-1-{[6-(trifluoromethyl)pyridin-3-yl]sulfonyl}pyrrolidin-3-amino] the Ki was ≤ 10 µM.
With `Cn1cnc(S(=O)(=O)N2C[C@@H](NCc3ccc(C(F)(F)F)cc3Cl)[C@H](c3ccc(F)cc3)C2)c1` [Example 321, (3S,4R)-N-[2-chloro-4-(trifluoromethyl)benzyl]-4-(4-fluorophenyl)-1-[(1-methyl-1H-imidazol-4-yl)sulfonyl]pyrrolidin-3-amine] the Ki was ≤ 1 µM.
`Cn1cnc(S(=O)(=O)N2C[C@H](NCc3sccc3Cl)[C@@H](c3ccccc3)C2)c1` [Example 553, (3R,4S)-N-[(3-chlorothiophen-2-yl)methyl]-1-[(1-methyl-1H-imidazol-4-yl)sulfonyl]-4-phenylpyrrolidin-3-amine] was tested, and the Ki was ≤ 1 µM.
In the case of `Cn1cnc(S(=O)(=O)N2C[C@@H](NCc3ccccn3)[C@H](c3ccc(F)cc3)C2)c1` (relative stereo) [Example 268, trans-4-(4-fluorophenyl)-1-[(1-methyl-1H-imidazol-4-yl)sulfonyl]-N-(pyridin-2-ylmethyl)pyrrolidin-3-amine], the Ki is reported as ≤ 10 µM.
In the case of `Cn1cnc(S(=O)(=O)N2C[C@H](NCCCCC(C)(F)F)[C@@H](c3ccc(F)cc3)C2)c1` [Example 739, (3R,4S)-N-(5,5-difluorohexyl)-4-(4-fluorophenyl)-1-[(1-methyl-1H-imidazol-4-yl)sulfonyl]pyrrolidin-3-amine], the Ki is reported as ≤ 0.1 µM.
In the case of `Cn1cnc(S(=O)(=O)N2C[C@@H](C(=O)NCc3cc(C(F)(F)F)ccn3)[C@H](c3ccc(F)cc3)C2)c1` (relative stereo) [Example 635, Trans-4-(4-fluorophenyl)-1-[(1-methyl-1H-imidazol-4-yl)sulfonyl]-N-{[4-(trifluoromethyl)pyridin-2-yl]methyl}pyrrolidine-3-carboxamide], the Ki is reported as ≤ 1 µM.
With `Cn1cnc(S(=O)(=O)N2C[C@H](NCC3CCC(F)(F)CC3)[C@@H](c3ccccc3)C2)c1` [Example 554, (3R,4S)-N-[(4,4-difluorocyclohexyl)methyl]-1-[(1-methyl-1H-imidazol-4-yl)sulfonyl]-4-phenylpyrrolidin-3-amine] the Ki was ≤ 1 µM.
`O=C(N[C@@H]1CN(S(=O)(=O)CC2CC2)C[C@H]1c1ccccc1)c1cc(Cl)cc(Cl)c1` (relative stereo) [Example 129, 3,5-dichloro-N-{trans-1-[(cyclopropylmethyl)sulfonyl]-4-phenylpyrrolidin-3-yl}benzamide] was tested, and the Ki was > 10 µM.

Same assay, conditions: radioligand binding, recombinant CHO cell membranes expressing human GlyT1c
In the case of `Cn1cnc(S(=O)(=O)N2C[C@@H](Nc3ccc(F)c(Cl)c3)[C@H](C3CCOC3)C2)c1` (relative stereo) [Example 830, trans -N-(3-chloro-4-fluorophenyl)-1-[(1-methyl-1H-imidazol-4-yl)sulfonyl] -4-(tetrahydrofuran-3 - yl)pyrrolidin-3-amine], the Ki is reported as ≤ 10 µM.
